Where a SMILES comes first, the peptide text is derived from it. Bridges are numbered along the chain shown (N, C = ends). [ ]: non-standard residue; d: D form. hPhe(3-Cl-4-CF3) = N[C@@H](CCc1ccc(C(F)(F)F)c(Cl)c1)C(=O)O; NPrPhe(4-CF3) = CCCN[C@@H](Cc1ccc(C(F)(F)F)cc1)C(=O)O; NMeGly(cPent) = CN[C@H](C(=O)O)C1CCCC1; Pro(4,4-F2) = O=C(O)[C@@H]1CC(F)(F)CN1; NMeL = CN[C@@H](CC(C)C)C(=O)O; NMeA = CN[C@@H](C)C(=O)O; Ac5c = NC1(C(=O)O)CCCC1; Aze = O=C(O)[C@@H]1CCN1; Sar = CNCC(=O)O
How the values were obtained:
[1] = target: GDP-bound NRAS wild-type protein (Homo sapiens, UniProt P01111); experiment: Binding to NRAS by surface plasmon resonance (SPR), Single Cycle Kinetics
Sequence of GDP-bound NRAS wild-type protein (P01111 whole entry): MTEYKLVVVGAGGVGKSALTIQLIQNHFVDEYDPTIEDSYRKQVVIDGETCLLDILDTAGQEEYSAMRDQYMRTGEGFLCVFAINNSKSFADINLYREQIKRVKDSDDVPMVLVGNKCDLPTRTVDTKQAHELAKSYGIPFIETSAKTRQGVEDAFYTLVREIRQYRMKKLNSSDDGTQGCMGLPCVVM

[2] = target: GDP-bound HRAS wild-type protein (Homo sapiens, UniProt P01112); experiment: Binding to HRAS by surface plasmon resonance (SPR), Single Cycle Kinetics
Sequence of GDP-bound HRAS wild-type protein (P01112 whole entry): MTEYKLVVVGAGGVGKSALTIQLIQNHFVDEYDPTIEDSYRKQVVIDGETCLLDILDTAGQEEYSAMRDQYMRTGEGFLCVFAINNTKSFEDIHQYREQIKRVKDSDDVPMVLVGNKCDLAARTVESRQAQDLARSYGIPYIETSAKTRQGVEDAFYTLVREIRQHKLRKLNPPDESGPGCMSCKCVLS

[3] = SPR, GDP-bound NRAS wild-type vs GDP-bound KRAS wild-type
[4] = SPR, GDP-bound HRAS wild-type vs GDP-bound KRAS wild-type
[5] = KD ratio, GDP-bound NRAS wild-type vs GDP-bound KRAS wild-type, SPR
[6] = KD ratio, GDP-bound HRAS wild-type vs GDP-bound KRAS wild-type, SPR

SMILES: CC[C@H](C)[C@@H]1NC(=O)[C@H](C2CCC2)N(C)C(=O)C[C@@H](C(=O)N(C)CC)N(C)C(=O)[C@H](C2CCCC2)N(C)C(=O)C2(CCC2)NC(=O)[C@@H]2C[C@H](C)CN2C(=O)[C@H](CCc2cc(F)c(C(F)(F)F)c(F)c2)NC(=O)CN(C)C(=O)[C@H](Cc2ccc(C(F)(F)F)cc2)N2CC/C=C\C[C@@H](C2=O)N(C)C(=O)CN(C)C1=O [PP2082]
- NRAS/KRAS (ratio of KD value with respect to NRAS to KD value with respect to KRAS) [1, 3]: AA (a compound having 20 or more is denoted as AA)
- HRAS/KRAS (ratio of KD value with respect to HRAS to KD value with respect to KRAS) [2, 4]: A (a compound having 10 or more and less than 20 is denoted as A)

SMILES: CC[C@H](C)[C@@H]1NC(=O)[C@H](CC(C)C)N(C)C(=O)C[C@@H](C(=O)N2CCOCC2)N(C)C(=O)[C@H](C2CCCC2)N(C)C(=O)C2(COC2)NC(=O)[C@@H]2CCCN2C(=O)[C@H](CCc2cc(F)c(C(F)(F)F)c(F)c2)NC(=O)CN(C)C(=O)[C@H](Cc2ccc(C(F)(F)F)cc2)N2CCCCC[C@@H](C2=O)N(C)C(=O)CN(C)C1=O [PP0501]
- NRAS/KRAS (ratio of KD value with respect to GDP-bound NRAS wild-type protein to KD value with respect to KRAS) ([1]; KD ratio NRAS/KRAS, SPR): B (a compound having 3 or more and less than 10 is denoted as B)
- HRAS/KRAS (ratio of KD value with respect to GDP-bound HRAS wild-type protein to KD value with respect to KRAS) ([2]; KD ratio HRAS/KRAS, SPR): B (a compound having 3 or more and less than 10 is denoted as B)

SMILES: CCCN1C(=O)[C@@H]2CCN2C(=O)[C@H](C)N(C)C(=O)[C@H]([C@@H](C)CC)NC(=O)[C@H](CC(C)C)N(C)C(=O)C[C@@H](C(=O)N(C)C)NC(=O)[C@H](C2CCCC2)N(C)C(=O)C2(CCCC2)NC(=O)[C@@H]2CC(F)(F)CN2C(=O)[C@H](CCc2ccc(C(F)(F)F)c(Cl)c2)NC(=O)CN(C)C(=O)[C@@H]1Cc1ccc(C(F)(F)F)cc1 [PP0381] ([NMeL]I[NMeA][Aze][NPrPhe(4-CF3)][Sar][hPhe(3-Cl-4-CF3)][Pro(4,4-F2)][Ac5c][NMeGly(cPent)]D-NMe2; lactam N-11)
- NRAS/KRAS (ratio of KD for GDP-bound NRAS wild-type to KD for KRAS) ([1]; KD ratio NRAS/KRAS, SPR): C (A compound having a KD ratio of 0.1 or more and less than 3 is denoted as C)
- HRAS/KRAS (ratio of KD for GDP-bound HRAS wild-type to KD for KRAS) ([2]; KD ratio HRAS/KRAS, SPR): B (a compound having 3 or more and less than 10 is denoted as B)

SMILES: CCC[C@H]1C(=O)N[C@@H]([C@@H](C)CC)C(=O)N(C2CC2)CC(=O)N(C)[C@H]2C/C=C\CCN(C2=O)[C@@H](CC2CCCCC2)C(=O)N(C)CC(=O)N[C@@H](CCc2ccc(C(F)(F)F)c(OC)c2)C(=O)N2C[C@H](OCC)C[C@H]2C(=O)N(C)C2(CCC2)C(=O)N(C)[C@@H](C(CC)CC)C(=O)N(C)[C@H](C(=O)N(C)C)CC(=O)N1C [PP2337]
- NRAS/KRAS (ratio of KD value with respect to NRAS to KD value with respect to KRAS) [1, 3]: A (a compound having 10 or more and less than 20 is denoted as A)
- HRAS/KRAS (ratio of KD value with respect to HRAS to KD value with respect to KRAS) [2, 4]: A (a compound having 10 or more and less than 20 is denoted as A)

SMILES: CCO[C@@H]1C[C@H]2C(=O)NC3(CC(C)(C)C3)C(=O)N(C)[C@@H](C3CCCC3)C(=O)N(C)[C@H](C(=O)N(C)CC)CC(=O)N(C)[C@@H](CC(C)C)C(=O)N[C@@H]([C@@H](C)CC)C(=O)N(C)CC(=O)N(C)[C@H]3C/C=C\CCN(C3=O)[C@@H](Cc3ccc(C(F)F)cc3)C(=O)N(C)CC(=O)N[C@@H](CCc3ccc(C(F)(F)F)c(OC)c3)C(=O)N2C1 [PP2828]
- NRAS/KRAS (ratio of KD value with respect to GDP-bound NRAS wild-type protein to KD value with respect to KRAS) ([1]; KD ratio NRAS/KRAS, class symbols): A (a compound having 10 or more and less than 20 is denoted as A)
- HRAS/KRAS (ratio of KD value with respect to GDP-bound HRAS wild-type protein to KD value with respect to KRAS) ([2]; KD ratio HRAS/KRAS, class symbols): A (a compound having 10 or more and less than 20 is denoted as A)

SMILES: CCO[C@@H]1C[C@H]2C(=O)NC3(CCC3)C(=O)N(C)[C@@H](C3CCCC3)C(=O)N(C)[C@H](C(=O)N(C)C)CC(=O)N(C)[C@@H](CC)C(=O)N[C@@H]([C@@H](C)CC)C(=O)NCC(=O)N(C)[C@H]3C/C=C\CCN(C3=O)[C@@H](Cc3ccc(C(F)(F)F)cc3)C(=O)N(C)CC(=O)N[C@@H](CCc3cc(F)c(C(F)(F)F)c(F)c3)C(=O)N2C1 [PP0983]
- NRAS/KRAS (ratio of KD value with respect to NRAS to KD value with respect to KRAS) [1, 5]: A (a compound having 10 or more and less than 20 is denoted as A)
- HRAS/KRAS (ratio of KD value with respect to HRAS to KD value with respect to KRAS) [2, 6]: A (a compound having 10 or more and less than 20 is denoted as A)

SMILES: CCCOC[C@H]1C(=O)N[C@@H]([C@@H](C)CC)C(=O)N2CCC[C@H]2C(=O)N(C)[C@H]2C/C=C\CCN(C2=O)[C@@H](Cc2ccc(C)cc2)C(=O)N(C)CC(=O)N[C@@H](CCc2ccc(C(F)(F)F)c(OC)c2)C(=O)N2C[C@H](OCC)C[C@H]2C(=O)N(C)C2(CCC2)C(=O)N(C)[C@@H](C(CC)CC)C(=O)N(C)[C@H](C(=O)N(C)C)CC(=O)N1C [PP2331]
- NRAS/KRAS (ratio of KD value with respect to NRAS to KD value with respect to KRAS) [1, 3]: AA (a compound having 20 or more is denoted as AA)
- HRAS/KRAS (ratio of KD value with respect to HRAS to KD value with respect to KRAS) [2, 4]: A (a compound having 10 or more and less than 20 is denoted as A)

SMILES: CC[C@H](C)[C@@H]1NC(=O)[C@H](CC2CC2)N(C)C(=O)C[C@@H](C(=O)N(C)C)N(C)C(=O)[C@H](C2CCCC2)N(C)C(=O)C2(CCC2)N(C)C(=O)[C@@H]2C[C@@H](C)CN2C(=O)[C@H](CCc2cc(F)c(C(F)(F)F)c(F)c2)NC(=O)CN(C)C(=O)[C@H](Cc2ccc(C)cc2)N2CC/C=C\C[C@@H](C2=O)N(C)C(=O)CN(C)C1=O [PP1800]
- NRAS/KRAS (ratio of KD value for NRAS to KD value for KRAS) [1, 5]: A (a compound having 10 or more and less than 20 is denoted as A)
- HRAS/KRAS (ratio of KD value for HRAS to KD value for KRAS) [2, 6]: A (a compound having 10 or more and less than 20 is denoted as A)

Reference: patent US20250230193A1, “CYCLIC COMPOUND HAVING SELECTIVE KRAS INHIBITORY EFFECT ON HRAS AND NRAS” (CHUGAI SEIYAKU KABUSHIKI KAISHA, priority 2022, published 2025)
